From US9371333B2, “Chromene derivatives and their analoga as Wnt pathway antagonists” (Deutsches Krebsforschungszentrum, priority 2010, dated 2016)

How the values were obtained:
Format in all cases: cell-based
[1] = system: HepG2; assay: Cytotoxicity in HepG2 (CellTiterGlo); conditions: Homo sapiens, 24 h after compound addition
Description: (§1) For examination of cytotoxicity in these cancer cell lines the commercial available CellTiterGlo® Reagent (Promega, USA) was used according to the manufactor.
(§2) Compounds were applied to Hek293T (denoted (a)) or HepG2 (denoted (b)), cultured in Dulbecco's Modified Eagles Medium, supplemented with 10% fetal calf serum and 1% penicillin/streptomycin. Cells were grown in T75 flasks at 37° C., 5% CO2 and trypsinized when 60-80% confluent by adding 2 ml of 0.25% Trypsin-EDTA solution. Cells were then re-suspended into culture medium yielding approx. 4000 cells (a) or 4500 cells (b), suspended in 30 microl medium. 48 h after cell seeding, compounds were added to yield the desired final concentrations. 24 h after compound addition cytotoxicity was evaluated. For this purpose the media was removed and CellTiterGlo® was added according to the manufactors manual. In this assay the luciferase emission readout is directly correlated with the cellular amount of ATP, low luciferase emission thus is reflecting cytotoxicity of a compound.

[2] = system: Hek293T; assay: Cytotoxicity in Hek293T (CellTiterGlo); conditions: Homo sapiens, HEK-293T, 24 h after compound addition
Description: as §1, §2

[3] = system: human fibroblasts (HS-68); assay: Cell line specific cytotoxicity, normal cells HS68 (nuclei count); conditions: Hoechst labeled nuclei count, at least 72 hr
Description: For examination of cell line-specific cytotoxicity, compounds were applied to human colorectal cancer cells (HCT116, denoted (1); SW480, denoted (2); Dld-1, denoted (3)) and human fibroblasts (HS-68, denoted (4)), cultured in Mc Coy's ((1)) and Dulbecco's Modified Eagles Medium ((2)-(4)), supplemented with 10% ((1)-(3)) and 20% ((4)) fetal calf serum and 1% penicillin/streptomycin. Cells were grown in T75 flasks at 37° C., 5% CO2 and trypsinized when 60-80% confluent by adding 2 ml of 0.25% Trypsin-EDTA (ethylenediaminetetraacetic acid) solution. Cells were then re-suspended into culture medium yielding approx. 750 cells, suspended in 45 microl medium, were plated into each well of a black 384-well plate for fluorescence imaging experiments. […] Compound incubation was terminated by (a) fixation and (b) permeabilisation of cells, followed by (c) fluorescence labeling of cell nuclei for cytometric quantification or by immunocytochemistry for microscopic evaluation of cell morphology. […]
Cell line-specific cytotoxicity was quantified by counting the number of Hoechst labeled nuclei per well of a 384-well plate using a plate cytometer. Data obtained with the cytometer was analysed using standard data analysis software.
Identified hits were further evaluated by visual inspection of fluorescence micrographs obtained from imaging using a conventional fluorescence microscope.

SMILES | IC50 [1] | IC50 [2] | IC50 [3]
COc1cc(C2C(C#N)=C(N)Oc3c2ccc2ccc(N)nc32)cc(Br)c1OC (racemic) [(20), 3,6-Diamino-1-(3-bromo-4,5-dimethoxy-phenyl)-1H-4-oxa-5-aza-phenanthrene-2-carbonitrile] | 37 µM | > 90 µM | 
C=CCOc1c(Br)cc(C2C(C#N)=C(N)Oc3cc4c(cc32)OCO4)cc1OC (stereo not drawn) [(41), 8-(4-Allyloxy-3-bromo-5-methoxy-phenyl)-6-amino-8H-[1,3]dioxolo[4,5-g]chromene-7-carbonitrile] | > 90 µM | > 90 µM | 
COc1cc(C2C(C#N)=C(N)Oc3c2ccc2ncccc32)cc(Br)c1OC (stereo not drawn) [(18), 6-Amino-8-(3-bromo-4,5-dimethoxy-phenyl)-8H-5-oxa-1-aza-phenanthrene-7-carbonitrile] | > 90 µM | > 90 µM | 
CCOC(=O)C1=C(N)Oc2c(ccc3ccccc23)C1c1cc(Br)c(OC)c(OC)c1 (stereo not drawn) [(6), 2-Amino-4-(3-bromo-4,5-dimethoxy-phenyl)-4H-benzo[h]chromene-3-carboxylic acid ethyl ester] | > 90 µM | > 90 µM | 
C=CCOc1c(Br)cc(C2C(C(=O)OCC)=C(N)Oc3c2ccc2ccccc32)cc1OC (stereo not drawn) [(4), 4-(4-Allyloxy-3-bromo-5-methoxy-phenyl)-2-amino-4H-benzo[h]chromene-3-carboxylic acid ethyl ester] | > 90 µM | > 90 µM | 
N#CC1=C(N)Oc2c(ccc3ccccc23)C1c1cc(F)c(F)c(F)c1 (stereo not drawn) [(7), 2-Amino-4-(3,4,5-trifluoro-phenyl)-4H-benzo[h]chromene-3-carbonitrile] | > 90 µM | > 90 µM | 
COc1cc(C2C(C#N)=C(N)Oc3c2c(O)nc2ccccc32)cc(Br)c1OC (stereo not drawn) [(17), 2-Amino-4-(3-bromo-4,5-dimethoxy-phenyl)-5-hydroxy-4H-pyrano[3,2-c]quinoline-3-carbonitrile] | > 90 µM | > 90 µM | > 90 µM
N#CC1=C(N)Oc2cc3c(cc2C1c1cc(F)c(F)c(F)c1)OCO3 (stereo not drawn) [(39), 6-Amino-8-(3,4,5-trifluoro-phenyl)-8H-[1,3]dioxolo[4,5-g]chromene-7-carbonitrile] | > 90 µM | > 90 µM | > 90 µM
CCOC(=O)C1=C(N)Oc2cc3c(cc2C1c1cc(F)c(F)c(F)c1)OCO3 (stereo not drawn) [(40), 6-Amino-8-(3,4,5-trifluoro-phenyl)-8H-[1,3]dioxolo[4,5-g]chromene-7-carboxylic acid ethyl ester] | > 90 µM | > 90 µM | 
COc1cc(C2C(C#N)=C(N)Oc3c2ccc2ccc(O)nc32)cc(Br)c1OC (stereo not drawn) [(19), 3-Amino-1-(3-bromo-4,5-dimethoxy-phenyl)-6-hydroxy-1H-4-oxa-5-aza-phenanthrene-2-carbonitrile] | > 90 µM | > 90 µM | 
C=CCOc1c(Br)cc(C2C(C(=O)OCC)=C(N)Oc3cc4c(cc32)OCO4)cc1OC (stereo not drawn) [(42), 8-(4-Allyloxy-3-bromo-5-methoxy-phenyl)-6-amino-8H-[1,3]dioxolo[4,5-g]chromene-7-carboxylic acid ethyl ester] | > 90 µM | > 90 µM | 
COc1cc(C2C(C#N)=C(N)Oc3cc4ccccc4cc32)cc(Br)c1OC (stereo not drawn) [(30), 2-Amino-4-(3-bromo-4,5-dimethoxy-phenyl)-4H-benzo[g]chromene-3-carbonitrile] | > 90 µM | > 90 µM | 
COc1cc(C2C(C#N)=C(N(C)C)Oc3cc4ccccc4cc32)cc(Br)c1OC (stereo not drawn) [(31), 2-Dimethylamino-4-(3-bromo-4,5-dimethoxy-phenyl)-4H-benzo[g]chromene-3-carbonitrile] | > 90 µM | > 90 µM | 
COc1cc(C2C(C#N)=C(N)Oc3c2ccc2ccccc32)cc(Br)c1OC (stereo not drawn) [(1), 2-Amino-4-(3-bromo-4,5-dimethoxy-phenyl)-4H-benzo[h]chromene-3-carbonitrile] | > 90 µM | > 90 µM | 
N#CC1=C(N)Oc2cc3ccccc3cc2C1c1cc(F)c(F)c(F)c1 (stereo not drawn) [(28), 2-amino-4-(3,4,5-trifluoro-phenyl)-4H-benzo[g]chromene-3-carbonitrile] | 31.7 µM | > 90 µM | 
N#CC1=C(N)Oc2cc3ccccc3cc2C1c1cc(F)c(N2CCCCC2)c(F)c1 (stereo not drawn) [(29), 2-amino-4-(3,5-difluoro-4-piperidin-1-yl-phenyl)-4H-benzo[g]chromene-3-carbonitrile] | 42.5 µM | > 90 µM | 
COc1cc(C2C(C#N)=C(N)Oc3c2ccc2ccc(C)nc32)cc(Br)c1OC (stereo not drawn) [(16), 3-Amino-1-(3-bromo-4,5-dimethoxy-phenyl)-6-methyl-1H-4-oxa-5-aza-phenanthrene-2-carbonitrile] | > 90 µM | > 90 µM | 
